Source: patent US9101631B2, “Combination therapy based on SRC and aurora kinase inhibition for the treatment of cancer” (Georgetown University, priority 2008, dated 2015)

Tested on: HCT116 colorectal cancer cells
Experiment: In vitro viability-based synergy assay (CellTiter Blue), dasatinib and C1368 alone and in combination
Protocol: HCT116 cells were plated at 3000 cells/well concentration into 96 well plates. […] Cells were incubated for an additional 72 hours and cellular viability measurements were performed using CellTiter Blue assay (Promega). IC50 values were calculated using XLFit and CI values were calculated using Calcusyn (Biosoft).

| IC50 value, agent alone (HCT116 cells, 72 hours treatment, single agent) | IC50 (Homo sapiens, HCT-116, 72 h, read-out: IC50 value, agent alone) | Structure (SMILES) |
| --- | --- | --- |
| undeterminable |  | O=C(Nc1cccc(Nc2nccc(Nc3cccc(C(F)(F)F)c3)n2)c1)C1CC1 [C1368, Cyclopropanecarboxylic acid {3-[4-(3-trifluoromethyl-phenylamino)-pyrimidin-2-ylamino]-phenyl}-amide] |
|  | 600 nM | Cc1nc(Nc2ncc(C(=O)Nc3c(C)cccc3Cl)s2)cc(N2CCN(CCO)CC2)n1 [dasatinib] |
